Article PMC2553423 (Glycobiology, 2008)

Experiments:
[1] = test system: EngAL; experiment: steady-state kinetics, pNP release at […] nm; assay type: biochemical, Alcaligenes sp.; details: 50 mM sodium phosphate pH 7.5, 5 mM MgCl2, 25°C
[2] = biological target: EngSP (Streptococcus pneumoniae, UniProt Q2MGH6); experiment: steady-state kinetics, pNP release at […] nm; assay type: biochemical; details: 50 mM sodium phosphate pH 7.5, 5 mM MgCl2, 25°C
[3] = biological target: EngCP (Clostridium perfringens, UniProt A0A0H2YQ40); assay type: biochemical
[4] = biological target: T1, EngPA (Cutibacterium acnes, UniProt A0ABM7H013); experiment: steady-state kinetics, pNP release at […] nm; assay type: biochemical; details: 50 mM sodium phosphate pH 7.5, 5 mM MgCl2, 25°C
T1 sequence (A0ABM7H013 1-1321): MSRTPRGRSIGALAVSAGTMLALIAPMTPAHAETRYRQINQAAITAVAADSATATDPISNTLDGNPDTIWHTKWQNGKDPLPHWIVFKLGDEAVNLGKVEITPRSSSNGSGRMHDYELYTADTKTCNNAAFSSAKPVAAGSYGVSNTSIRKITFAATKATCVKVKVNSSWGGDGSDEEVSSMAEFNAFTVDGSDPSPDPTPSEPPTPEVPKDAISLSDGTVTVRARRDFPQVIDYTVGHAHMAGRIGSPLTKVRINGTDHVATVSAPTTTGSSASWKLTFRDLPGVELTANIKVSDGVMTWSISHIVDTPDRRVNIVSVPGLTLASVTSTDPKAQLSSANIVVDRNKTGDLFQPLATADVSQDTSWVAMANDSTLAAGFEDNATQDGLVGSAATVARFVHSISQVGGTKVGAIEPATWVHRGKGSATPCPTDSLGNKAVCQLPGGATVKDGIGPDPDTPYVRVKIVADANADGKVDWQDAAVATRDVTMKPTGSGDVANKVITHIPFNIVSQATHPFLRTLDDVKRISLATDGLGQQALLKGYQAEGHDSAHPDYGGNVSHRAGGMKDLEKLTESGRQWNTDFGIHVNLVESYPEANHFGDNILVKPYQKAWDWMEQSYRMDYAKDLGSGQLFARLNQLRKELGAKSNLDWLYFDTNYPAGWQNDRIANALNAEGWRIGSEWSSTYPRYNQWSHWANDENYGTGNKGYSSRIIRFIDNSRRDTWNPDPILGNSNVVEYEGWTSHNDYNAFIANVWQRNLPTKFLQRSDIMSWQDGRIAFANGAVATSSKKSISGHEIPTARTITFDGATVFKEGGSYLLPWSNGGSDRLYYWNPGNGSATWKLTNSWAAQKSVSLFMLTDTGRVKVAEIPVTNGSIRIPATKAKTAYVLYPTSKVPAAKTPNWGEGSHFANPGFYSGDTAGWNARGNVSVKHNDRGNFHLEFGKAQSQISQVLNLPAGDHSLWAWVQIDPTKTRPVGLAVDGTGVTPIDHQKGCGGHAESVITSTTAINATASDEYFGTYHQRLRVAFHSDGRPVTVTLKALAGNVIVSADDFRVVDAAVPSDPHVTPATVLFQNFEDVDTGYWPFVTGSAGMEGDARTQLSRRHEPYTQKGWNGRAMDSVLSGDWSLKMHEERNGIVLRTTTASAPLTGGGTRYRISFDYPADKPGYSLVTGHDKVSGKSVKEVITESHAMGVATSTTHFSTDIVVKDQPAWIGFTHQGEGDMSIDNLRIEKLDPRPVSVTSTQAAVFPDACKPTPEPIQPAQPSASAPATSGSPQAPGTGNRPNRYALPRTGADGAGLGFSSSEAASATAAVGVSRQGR

[5] = biological target: T2, EngEF (Enterococcus faecalis, UniProt Q833X5); experiment: steady-state kinetics, pNP release at […] nm; details: 50 mM sodium phosphate pH 7.5, 5 mM MgCl2, 25°C
T2 sequence (Q833X5 1-1324): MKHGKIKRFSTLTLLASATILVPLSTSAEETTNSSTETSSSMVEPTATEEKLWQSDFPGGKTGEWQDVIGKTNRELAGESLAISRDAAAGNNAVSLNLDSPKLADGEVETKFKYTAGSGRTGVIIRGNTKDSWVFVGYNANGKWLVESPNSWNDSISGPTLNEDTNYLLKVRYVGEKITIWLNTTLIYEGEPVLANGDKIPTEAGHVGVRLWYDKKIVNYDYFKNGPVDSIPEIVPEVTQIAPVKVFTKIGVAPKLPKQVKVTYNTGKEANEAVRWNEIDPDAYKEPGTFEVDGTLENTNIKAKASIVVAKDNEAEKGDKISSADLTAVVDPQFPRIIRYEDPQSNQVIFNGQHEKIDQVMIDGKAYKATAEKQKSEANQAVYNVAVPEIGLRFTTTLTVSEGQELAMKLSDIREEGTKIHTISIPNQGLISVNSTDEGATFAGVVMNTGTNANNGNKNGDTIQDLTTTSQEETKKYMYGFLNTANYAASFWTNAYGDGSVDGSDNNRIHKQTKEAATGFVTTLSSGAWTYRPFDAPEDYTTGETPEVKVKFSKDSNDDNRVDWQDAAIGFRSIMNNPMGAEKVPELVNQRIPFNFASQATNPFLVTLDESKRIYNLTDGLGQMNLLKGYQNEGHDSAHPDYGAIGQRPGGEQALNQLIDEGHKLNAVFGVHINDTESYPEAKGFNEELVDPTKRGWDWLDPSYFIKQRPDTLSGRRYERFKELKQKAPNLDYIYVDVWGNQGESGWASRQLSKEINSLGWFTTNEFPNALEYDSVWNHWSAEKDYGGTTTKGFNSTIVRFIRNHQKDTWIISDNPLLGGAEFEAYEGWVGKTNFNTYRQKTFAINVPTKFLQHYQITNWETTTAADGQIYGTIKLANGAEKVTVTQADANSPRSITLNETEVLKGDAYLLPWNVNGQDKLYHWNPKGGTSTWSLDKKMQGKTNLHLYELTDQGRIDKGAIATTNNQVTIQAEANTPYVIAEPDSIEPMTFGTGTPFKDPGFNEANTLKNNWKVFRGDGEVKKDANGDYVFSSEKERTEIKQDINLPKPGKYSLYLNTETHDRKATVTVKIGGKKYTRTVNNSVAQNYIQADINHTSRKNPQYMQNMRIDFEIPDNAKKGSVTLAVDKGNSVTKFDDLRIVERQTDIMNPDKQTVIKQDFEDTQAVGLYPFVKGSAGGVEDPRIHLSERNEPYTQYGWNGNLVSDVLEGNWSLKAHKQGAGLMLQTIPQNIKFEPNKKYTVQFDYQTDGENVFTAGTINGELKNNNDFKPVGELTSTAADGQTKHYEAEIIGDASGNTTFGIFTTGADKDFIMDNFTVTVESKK

[6] = substrate: CC(=O)N[C@H]1[C@H](O[C@H]2[C@@H](O)[C@@H](CO)O[C@H](Oc3ccc([N+](=O)[O-])cc3)[C@@H]2NC(C)=O)O[C@H](CO)[C@@H](O)[C@@H]1O; experiment: purified protein; details: 50 mM sodium phosphate pH 7.5, 5 mM MgCl2, 25°C

`CC(=O)N[C@H]1[C@@H](Oc2ccc([N+](=O)[O-])cc2)O[C@H](CO)[C@H](O)[C@@H]1O[C@@H]1O[C@H](CO)[C@H](O)[C@H](O)[C@H]1O` [Galβ1,3GalNAcα1pNP] was tested, and the Km [1] was 33.9 µM, the Km [2] was 40.4 µM and the Km [3] was 70.9 µM. For the same molecule, the Km [4] was 3.78 µM and the Km [5] was 47.9 µM.

B1: EngEF (Enterococcus faecalis V583) (protein)
chain: T2 sequence (Q833X5 1-1324)
With B1 the Km [6] was 20.03 µM and the kcat [6] was 9.43 s⁻¹.
